Data set [1] in a line: Fluid overload therapy with diuretic (Lasix) and hydration fluid via the Reprieve Cardiovascular Second Generation System: diuresis, fluid, sodium and weight outcomes. Type of data set: in vivo, human. Here is the method:
(§1) Clinical data associated with embodiments of the present technology were obtained from patient tests conducted at the Tbilisi Heart and Vascular Center in Tbilisi, Georgia. 15 patients underwent fluid therapy in which diuretic(s) and hydration fluid were administered via the Reprieve Cardiovascular™ Second Generation System according to the methods described herein (“treatment group”). As described below, data obtained from the tests indicate that the net fluid loss and net sodium loss levels achieved represent a significant improvement over conventional methods for treating fluid overload conditions, and generally indicate that embodiments of the present technology produce improved diuresis and renal safety.
Table 1 below indicates total urine output, net fluid loss (not including intake fluid), net fluid loss (including intake fluid), net sodium balance, and average diuretic (Lasix) dosage rate for each patient in the treatment group, as measured across a therapy timespan. […] Additionally, the average therapy timespan for the treatment group was 31 hours, whereas the average therapy timespan for standard of care therapy in the literature is approximately 5 days. […] Over the 30 days, none of the patients in the treatment group regained the weight that lost during therapy or were readmitted for additional treatment.
As also shown in Table 1, the average net sodium balance for all patients in the treatment group decreased by nearly 800 millimoles (mmol) over the therapy timespan. When normalized over a 24-hour period, the average and median net sodium balance was −14 grams (g) and −15 g respectively.

For data set [2] the following is noted: human, in vivo. Here is the method:
as §1
Estimated glomerular filtration rate (eGFR) is a measure of kidney function and stage of kidney disease, and is based on patient factors including blood creatinine and a patient's age, body size, and gender.
Blood pressure measurements of the patients in the treatment group serve as another indication that the fluid therapy was well received by the patients. For example, the average mean arterial pressure (MAP) of patients dropped from 90.1 mmHg to 88.2 mmHg at the time of patient discharge, and then to 87.2 mmHg after 30 days. Additionally, average systolic pressure of the patients dropped from 121 mmHg to 119 mmHg at the time of patient discharge, and then to 117 mmHg after 30 days.

[3] abbreviates: average of 15 treatment group patients, average therapy timespan 31 h.
Where [4] appears, read: individual patient, over that patient's therapy timespan, Lasix plus hydration fluid.
Where [5] appears, read: normalized over a 24-hour period.

SMILES strings stand for the structures. Values joined by “and” are separate entries in the source; they are usually repeats but may differ in a detail not shown here. Identical values can stand only once.

This is an account of results in patent US11950925B2, “Managing fluid levels in a patient and associated devices, systems, and methods” (REPRIEVE CARDIOVASCULAR, INC., priority 2019, dated 2024).

Regarding `NS(=O)(=O)c1cc(C(=O)O)c(NCc2ccco2)cc1Cl` [Lasix, Furosemide], the “decrease of average net sodium balance” value in data set [1] (all treatment group patients, over the therapy timespan) is on record as about 800 mmol. Moreover, in data set [1] (setting [3]), the “Net Fluid Loss (including oral fluid intake), average” value is −5,919 ml; the “Net Fluid Loss (not including oral fluid intake), average” value was −6,948 ml; the “Total Urine, average” value is on record as 12,744 ml. In addition, in data set [1] (setting [4]), the “Net Fluid Loss (including oral fluid intake)” value was −4,868 ml and −4,247 ml and −2,232 ml and −10,787 ml and −1,021 ml and −6,276 ml and −5,625 ml and −3,636 ml and −10,299 ml and −3,724 ml and −9,156 ml and −6,583 ml and −6,186 ml and −10,301 ml and −3,844 ml; the “Net Fluid Loss (not including oral fluid intake)” value was −6,001 ml and −4,590 ml and −2,993 ml and −11,913 ml and −2,003 ml and −8,306 ml and −6,941 ml and −3,953 ml and −12,269 ml and −4,364 ml and −9,995 ml and −7,888 ml and −7,018 ml and −11,333 ml and −4,704 ml; the “Total Urine” value was 14,158 ml and 11,456 ml and 6,329 ml and 19,728 ml and 3,726 ml and 12,966 ml and 12,179 ml and 6,496 ml and 20,184 ml and 8,328 ml and 17,784 ml and 14,629 ml and 12,930 ml and 21,155 ml and 9,162 ml. In data set [1] (setting [5]), the “average net fluid loss” value is “approximately 5.4 L”, the “average net sodium balance” value is -14 g and the “median net sodium balance” value is -15 g. Also, in data set [1] (treatment group vs conventional therapy (diuretic, no replacement hydration fluid), normalized 24-hour period), the “increase in net fluid loss relative to control group” value is on record as “over 200%”. In data set [1] (treatment group, after 30 days), this compound had an average weight loss of 5.7 kg. In addition, the average weight loss in data set [1] (treatment group, at the time of patient discharge) was 6.8 kg. In addition, the “average net fluid loss (not including oral fluid intake)” value in data set [1] (treatment group, over an average therapy timespan of 31 hours) is reported as about 7 L. The “patients who regained the weight lost during therapy or were readmitted for additional treatment” value in data set [1] (treatment group, over the 30 days) is “none”. Also, in data set [2], the “average decrease of eGFR” value was 1.6, the “average increase in creatinine” value is reported as 0.11 mg/dL and the “tolerability of the fluid therapy” value was “generally well tolerated”.
